For assay [1], the target named is T1, P2X7 (Homo sapiens (Human), UniProt Q99572). The experiment in a line: Radioligand binding, human P2X7-1321N1 cell membranes, tritiated A-804598 tracer. To be noted: 1 hour at 4° C. On the procedure: (B) Radioligand binding: human or rat P2X7-1321N1 cells were collected and frozen @ −80° C. On the day of the experiment, cell membrane preparations were made according to standard published methods. […] The compound can be prepared as described in the literature. […] The assay was terminated by filtration (GF/B filters pre-soaked with 0.3% PEI) and washed with washing buffer (Tris-HCl 50 mM). The IC50 generated in the binding assay was corrected for tracer concentration and affinity of the tracer to derive at the affinity (Ki) of the test compounds.
T1 sequence (Q99572 whole entry): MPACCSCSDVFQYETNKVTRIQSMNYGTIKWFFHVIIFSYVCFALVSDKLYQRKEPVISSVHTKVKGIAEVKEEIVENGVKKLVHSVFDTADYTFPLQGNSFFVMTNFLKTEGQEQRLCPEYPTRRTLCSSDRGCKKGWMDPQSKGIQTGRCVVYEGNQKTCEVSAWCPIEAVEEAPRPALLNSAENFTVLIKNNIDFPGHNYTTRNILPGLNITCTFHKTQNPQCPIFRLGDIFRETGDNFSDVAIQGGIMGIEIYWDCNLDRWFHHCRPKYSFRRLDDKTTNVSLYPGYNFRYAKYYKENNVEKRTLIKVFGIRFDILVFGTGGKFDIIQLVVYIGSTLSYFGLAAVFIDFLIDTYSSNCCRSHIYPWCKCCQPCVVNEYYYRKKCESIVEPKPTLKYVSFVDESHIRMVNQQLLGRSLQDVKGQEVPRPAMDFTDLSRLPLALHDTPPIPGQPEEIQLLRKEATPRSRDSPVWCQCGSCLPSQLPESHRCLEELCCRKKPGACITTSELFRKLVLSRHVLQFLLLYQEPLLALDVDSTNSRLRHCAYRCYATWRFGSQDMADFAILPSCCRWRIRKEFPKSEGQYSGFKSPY

Assay [2] concerns the target T2, rat P2X7 (Rattus norvegicus (Rat), UniProt Q64663). The experiment in a line: Radioligand binding, rat P2X7-1321N1 cell membranes, tritiated A-804598 tracer. To be noted: 1 hour at 4° C. As for the experimental part: (B) Radioligand binding: human or rat P2X7-1321N1 cells were collected and frozen @ −80° C. On the day of the experiment, cell membrane preparations were made according to standard published methods. The total assay volume was 100 μl:10 μl compound (10×)+(b) 40 μl tracer (2.5×)+50 μl membrane (2×). The tracer used for the assay was tritiated A-804598. The compound can be prepared as described in the literature. (Donnelly-Roberts, D. Neuropharmacology 2009, 56 (1), 223-229.) Compounds, tracer and membranes were incubated for 1 hour @ 4° C. The assay was terminated by filtration (GF/B filters pre-soaked with 0.3% PEI) and washed with washing buffer (Tris-HCl 50 mM). The IC50 generated in the binding assay was corrected for tracer concentration and affinity of the tracer to derive at the affinity (Ki) of the test compounds.

The target in assay [3] is T1, P2X7. As to the kind of experiment: Ca2+ flux (FLIPR) in 1321N1 cells expressing recombinant human P2X7 channel. Conditions: 250 μM BzATP. In kind it is cell-based. As for the experimental part: (§1) (A) Ca^2+ Flux: 1321N1 cells expressing the recombinant human, rat or mouse P2X7 channel was cultured in HyQ DME/(HyClone/Dulbecco's Modified Eagle Medium) high glucose supplemented with 10% Fetal Bovine Serum (FBS) and appropriate selection marker. Cells were seeded at a density of 25000 cells/well (96-well clear bottom black walled plates) in 100 μl volume/well. On the day of the experiment, cell plates were washed with assay buffer, containing (in mM): 130 NaCl, 2 KCl, 1 CaCl2, 1 MgCl2, 10 HEPES, 5 glucose; pH 7.40 and 300 mOs. After the wash, cells were loaded with the Calcium-4 dye (Molecular Device) and incubated in the dark for 60 minutes. Test compounds were prepared at 250× the test concentration in neat DMSO. Intermediate 96-well compound plates were prepared by transferring 1.2 μL of the compound into 300 μL of assay buffer. A further 3× dilution occurred when transferring 50 μL/well of the compound plate to 100 μL/well in the cell plate. Cells were incubated with test compounds and dye for 30 minutes. […] The fluorescence change was measured 180 seconds after adding the agonist.
(Calcium assays in cells follow changes in intracellular calcium, usually with a dye or a luminescent sensor.)

The target of assay [4] is T2, rat P2X7. As to the kind of experiment: Ca2+ flux (FLIPR) in 1321N1 cells expressing recombinant rat P2X7 channel. Type of assay: cell-based. Conditions: 250 μM BzATP. On the procedure: as §1

Ki and IC50 data for 15 compounds are collected here from patent US9040534B2, “[1,2,4]triazolo[4,3-a]pyrazines as P2X7 modulators” (Janssen Pharmaceutica NV, priority 2013, dated 2015).

T2 sequence (Q64663 whole entry): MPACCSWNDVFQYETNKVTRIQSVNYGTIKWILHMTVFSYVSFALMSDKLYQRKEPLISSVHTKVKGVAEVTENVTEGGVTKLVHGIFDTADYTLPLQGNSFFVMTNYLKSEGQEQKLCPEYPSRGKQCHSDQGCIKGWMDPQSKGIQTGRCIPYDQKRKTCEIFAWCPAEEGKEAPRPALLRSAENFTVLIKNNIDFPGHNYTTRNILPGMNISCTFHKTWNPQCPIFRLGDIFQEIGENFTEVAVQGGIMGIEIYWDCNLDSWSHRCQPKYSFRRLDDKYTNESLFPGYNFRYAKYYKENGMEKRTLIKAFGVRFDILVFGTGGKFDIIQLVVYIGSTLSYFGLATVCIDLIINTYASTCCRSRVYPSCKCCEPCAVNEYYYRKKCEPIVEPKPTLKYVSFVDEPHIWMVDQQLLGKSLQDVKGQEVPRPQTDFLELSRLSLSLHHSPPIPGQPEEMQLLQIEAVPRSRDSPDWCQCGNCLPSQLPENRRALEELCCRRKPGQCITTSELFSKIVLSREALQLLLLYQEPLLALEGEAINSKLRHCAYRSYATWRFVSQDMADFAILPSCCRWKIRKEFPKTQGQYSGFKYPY

What is called Ki is a measure of affinity in units of concentration, obtained from inhibition or displacement. A low value points to higher affinity. By IC50 is commonly meant the concentration needed to halve the response being measured. Consider `C[C@H]1Cn2c(nnc2-c2ncco2)C(=O)N1Cc1cccc(C(F)(F)F)c1Cl` [Example 20, (6S)-7-[2-Chloro-3-(trifluoromethyl)benzyl]-6-methyl-3-(1,3-oxazol-2-yl)-6,7-dihydro[1,2,4]triazolo[4,3-a]pyrazin-8(5H)-one], for which the Ki at P2X7 [1] is 4 nM; at rat P2X7 [2], 5 nM. The IC50 is 3.2 nM on P2X7 [3] and 2000 nM at rat P2X7 [4].

Regarding `C[C@H]1Cn2c(nnc2-c2cccnc2)C(=O)N1Cc1cccc(C(F)(F)F)c1Cl` [Example 29, (6S)-7-[2-Chloro-3-(trifluoromethyl)benzyl]-6-methyl-3-pyridin-3-yl-6,7-dihydro[1,2,4]triazolo[4,3-a]pyrazin-8(5H)-one], the Ki was 4 nM on P2X7 [1] and 5.6 nM at rat P2X7 [2]. Further, the figures for the IC50 at P2X7 [3] and at rat P2X7 [4] were 1 nM and 122 nM, respectively.

Take `CC[C@H]1Cn2c(nnc2-c2ccc(F)cn2)C(=O)N1Cc1cccc(C(F)(F)F)c1Cl` [Example 76, (6S)-7-[2-Chloro-3-(trifluoromethyl)benzyl]-6-ethyl-3-(5-fluoropyridin-2-yl)-6,7-dihydro[1,2,4]triazolo[4,3-a]pyrazin-8(5H)-one]: the Ki at P2X7 [1] amounted to 2.5 nM; on rat P2X7 [2], 1.6 nM. Also, the IC50 at P2X7 [3] is < 1 nM; at rat P2X7 [4] it was 158 nM.

In the case of `C[C@H]1Cn2c(nnc2-c2ccccn2)C(=O)N1Cc1cccc(C(F)(F)F)c1Cl` [Example 18, (6S)-7-[2-Chloro-3-(trifluoromethyl)benzyl]-6-methyl-3-pyridin-2-yl-6,7-dihydro[1,2,4]triazolo[4,3-a]pyrazin-8(5H)-one], the Ki at P2X7 [1] turned out to be 5 nM; at rat P2X7 [2] it was 2 nM. Also, the values for the IC50 on P2X7 [3] and on rat P2X7 [4] were < 1 nM and 316 nM, respectively.

In the case of `O=C1c2nnc(-c3ccc(F)cc3)n2CCN1Cc1cccc(C(F)(F)F)c1Cl` [Example 1, 7-[2-Chloro-3-(trifluoromethyl)benzyl]-3-(4-fluorophenyl)-6,7-dihydro[1,2,4]triazolo[4,3-a]pyrazin-8(5H)-one], the Ki on P2X7 [1] was 63.1 nM. For the same compound, the IC50 on P2X7 [3] worked out at 148 nM; on rat P2X7 [4], 28400 nM.

Regarding `C[C@H]1Cn2c(nnc2-c2cncc(F)c2)C(=O)N1Cc1cccc(C(F)(F)F)c1Cl` [Example 45, (6S)-7-[2-Chloro-3-(trifluoromethyl)benzyl]-3-(5-fluoropyridin-3-yl)-6-methyl-6,7-dihydro[1,2,4]triazolo[4,3-a]pyrazin-8(5H)-one], the Ki on P2X7 [1] is 6.3 nM; on rat P2X7 [2], 5 nM. The IC50 came to 100 nM on P2X7 [3] and 12600 nM on rat P2X7 [4].

Consider `CC[C@H]1Cn2c(nnc2-c2cc[nH]n2)C(=O)N1Cc1cccc(C(F)(F)F)c1Cl` [Example 74, (6S)-7-[2-Chloro-3-(trifluoromethyl)benzyl]-6-ethyl-3-(1H-pyrazol-3-yl)-6,7-dihydro[1,2,4]triazolo[4,3-a]pyrazin-8(5H)-one], for which, at P2X7 [1], the Ki is 10 nM. In addition, the IC50 was 1.5 nM on P2X7 [3] and 5.1 nM at rat P2X7 [4].

Take `Cc1cccc(C)c1CN1C(=O)c2nnc(-c3cnccn3)n2C[C@@H]1C` [Example 87, (6S)-7-(2,6-Dimethylbenzyl)-6-methyl-3-pyrazin-2-yl-6,7-dihydro[1,2,4]triazolo[4,3-a]pyrazin-8(5H)-one]: at P2X7 [1], the affinity corresponds to a Ki of 31.6 nM. Also, the IC50 on P2X7 [3] is 42.5 nM; on rat P2X7 [4], 1560 nM.

Take `Cc1cc(-c2nnc3n2C[C@H](C)N(Cc2cccc(C(F)(F)F)c2Cl)C3=O)n[nH]1` [Example 26, (6S)-7-[2-Chloro-3-(trifluoromethyl)benzyl]-6-methyl-3-(5-methyl-1H-pyrazol-3-yl)-6,7-dihydro[1,2,4]triazolo[4,3-a]pyrazin-8(5H)-one]: the Ki at P2X7 [1] worked out at 3.2 nM; on rat P2X7 [2], 1 nM. Further, the IC50 was 1.2 nM on P2X7 [3] and 375 nM at rat P2X7 [4].

Compound `CC[C@H]1Cn2c(nnc2-c2cnccn2)C(=O)N1Cc1cccc(C(F)(F)F)c1Cl` [Example 71, (6S)-7-[2-Chloro-3-(trifluoromethyl)benzyl]-6-ethyl-3-pyrazin-2-yl-6,7-dihydro[1,2,4]triazolo[4,3-a]pyrazin-8(5H)-one] registered a Ki on P2X7 [1] of 1.3 nM. Moreover, the IC50 at P2X7 [3] came out at 0.3 nM; at rat P2X7 [4], 10.3 nM.

At P2X7 [1], `O=C1c2nnc(-c3ncc(F)cn3)n2CC(C2CC2)N1Cc1cccc(C(F)(F)F)c1Cl` (racemic) [Example 70, (±)-7-[2-Chloro-3-(trifluoromethyl)benzyl]-6-cyclopropyl-3-(5-fluoropyrimidin-2-yl)-6,7-dihydro[1,2,4]triazolo[4,3-a]pyrazin-8(5H)-one] yielded a Ki of 7.9 nM. In addition, the IC50 stood at 7.9 nM on P2X7 [3] and 794 nM at rat P2X7 [4].

Regarding `C[C@H]1Cn2c(nnc2C2CCCNC2)C(=O)N1Cc1cccc(C(F)(F)F)c1Cl` (stereo partly drawn) [Example 60, (6S)-7-[2-Chloro-3-(trifluoromethyl)benzyl]-6-methyl-3-piperidin-3-yl-6,7-dihydro[1,2,4]triazolo[4,3-a]pyrazin-8(5H)-one], at P2X7 [1], the Ki came to 631 nM. The IC50 on P2X7 [3] and at rat P2X7 [4] was > 10000 nM throughout.

Consider `Cc1nc(C)c(-c2nnc3n2C[C@H](C)N(Cc2cccc(C(F)(F)F)c2Cl)C3=O)s1` [Example 39, (6S)-7-[2-Chloro-3-(trifluoromethyl)benzyl]-3-(2,4-dimethyl-1,3-thiazol-5-yl)-6-methyl-6,7-dihydro[1,2,4]triazolo[4,3-a]pyrazin-8(5H)-one], for which the Ki on P2X7 [1] was 27.5 nM. The results for the IC50 on P2X7 [3] and on rat P2X7 [4] were 22.4 nM and 8670 nM, respectively.

`COc1ccnc(-c2nnc3n2C[C@H](C)N(Cc2cccc(C(F)(F)F)c2Cl)C3=O)c1` [Example 35, (6S)-7-[2-Chloro-3-(trifluoromethyl)benzyl]-3-(4-methoxypyridin-2-yl)-6-methyl-6,7-dihydro[1,2,4]triazolo[4,3-a]pyrazin-8(5H)-one] yielded a Ki at P2X7 [1] of 2 nM. Besides, the IC50 at P2X7 [3] was 0.7 nM; on rat P2X7 [4] it was 10.6 nM.

Take `C[C@H]1Cn2c(nnc2-c2ccn(C)n2)C(=O)N1Cc1cccc(C(F)(F)F)c1Cl` [Example 23, (6S)-7-[2-Chloro-3-(trifluoromethyl)benzyl]-6-methyl-3-(1-methyl-1H-pyrazol-3-yl)-6,7-dihydro[1,2,4]triazolo[4,3-a]pyrazin-8(5H)-one]: the Ki on P2X7 [1] and at rat P2X7 [2] was 3.2 nM each time. Also, the results for the IC50 on P2X7 [3] and on rat P2X7 [4] were 2.5 nM and 1220 nM, respectively.
